Results taken from the supplement of paper PMC11061612.

Assays:
NCI-H28 (Mesothelioma) = experiment: combination Emax (second highest fraction inhibited in the dose matrix, 72 h); higher = more inhibition; extreme values may be limits of the assay
In short: (§1)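 Cell lines in DMEM/F12 or RPMI with 10% FBS were plated in 1536-well plates, held 24 hours at 37°C, 5% CO2, then given two-drug dose matrices for 72 hours (DMSO typically 0.2%). Viability was read by CellTiter-Glo 2.0 luminescence and scaled as inhibition from 0 (vehicle wells) to 1 (blank wells). Combination Emax is the second-highest inhibition in the matrix; Bliss excess is observed combination effect minus expected EA + EB − EA·EB, EA and EB being single-agent effects.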

[1] = tested on: HO-1-u-1 (Oral Cavity Carcinoma); experiment: as above
In short: as §1

[2] = tested on: K5 (Thyroid Gland Carcinoma); experiment: as above
In short: as §1

Mewo (Melanoma) = experiment: as above
In short: as §1

[3] = tested on: SW1116 (Colorectal Carcinoma); experiment: as above
In short: as §1

[4] = tested on: SUP-T1 (T-Lymphoblastic Leukemia); experiment: as above
In short: as §1

[5] = tested on: Hs-633T (Other Solid Carcinomas); experiment: as above
In short: as §1

NCI-H2795 (Mesothelioma) = experiment: as above
In short: as §1

[6] = tested on: NCI-H69 (Small Cell Lung Carcinoma); experiment: as above
In short: as §1

NB14 (Neuroblastoma) [7] = experiment: as above
In short: as §1

[8] = tested on: EN (Endometrial Carcinoma); experiment: Bliss excess, mean over the matrix (fraction); higher = more synergy
In short: as §1

[9] = tested on: PCI-30 (Head and Neck Carcinoma); experiment: as above
In short: as §1

[10] = tested on: K5 (Thyroid Gland Carcinoma); experiment: as above
In short: as §1

[11] = tested on: RKO (Colorectal Carcinoma); experiment: as above
In short: as §1

[12] = tested on: HARA (Squamous Cell Lung Carcinoma); experiment: as above
In short: as §1

[13] = tested on: SUP-T1 (T-Lymphoblastic Leukemia); experiment: as above
In short: as §1

[14] = tested on: HDLM-2 (Hodgkin's Lymphoma); experiment: as above
In short: as §1

[15] = tested on: SW1271 (Small Cell Lung Carcinoma); experiment: as above
In short: as §1

NB14 (Neuroblastoma) [16] = experiment: as above
In short: as §1

[17] = tested on: SK-OV-3 (Ovarian Carcinoma); experiment: as above
In short: as §1
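Throughout, for Bliss excess, mean over the matrix: after 72 h of two-drug dosing.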

Compound	combination Emax (NCI-H28 (Mesothelioma))	combination Emax [1]	combination Emax [2]	combination Emax (Mewo (Melanoma))	combination Emax [3]	combination Emax [4]	combination Emax [5]	combination Emax (NCI-H2795 (Mesothelioma))	combination Emax [6]	combination Emax (NB14 (Neuroblastoma) [7])	Bliss excess [8]	Bliss excess [9]	Bliss excess [10]	Bliss excess [11]	Bliss excess [12]	Bliss excess [13]	Bliss excess [14]	Bliss excess [15]	Bliss excess (NB14 (Neuroblastoma) [16])	Bliss excess [17]
C[C@@H](Nc1cc(F)cc(F)c1)c1cc(C(=O)N(C)C)cc2c(=O)cc(N3CCOCC3)oc12 [AZD8186] + CC(=O)c1c(C)c2cnc(Nc3ccc(N4CCNCC4)cn3)nc2n(C2CCCC2)c1=O [Palbociclib] (first compound max 10 µM, 7x7, partner max 10 µM)	0.434	0.378	0.509	0.449	0.175	0.651	0.586	0.53	0.558	0.536	-0.0262	0.0121	-0.0142	0.0559	0.0281	-0.0616	0.0121	0.0035	0.075	-0.0454
C[C@@H](Oc1cc(-c2cnn(C3CCNCC3)c2)cnc1N)c1c(Cl)ccc(F)c1Cl [Crizotinib] + CC1=C(C(=CC=C1)Cl)NC(=O)C2=CN=C(S2)NC3=CC(=NC(=N3)C)N4CCN(CC4)CCO [Dasatinib] (first compound max 10 µM, 7x7, partner max 2 µM)	0.772	0.863	0.81	0.481	0.619	0.837	1	0.918	0.771	0.976	-0.0798	0.0685	-0.0107	0.0106	0.0526	-0.009	-0.0228	0.0464	-0.0123	0.0301
C[C@@H](Oc1cc(-c2cnn(C3CCNCC3)c2)cnc1N)c1c(Cl)ccc(F)c1Cl [Crizotinib] + Cn1cnc2c(F)c(Nc3ccc(Br)cc3Cl)c(C(=O)NOCCO)cc21 [Selumetinib] (first compound max 10 µM, 7x7, partner max 10 µM)	0.438	0.639	0.682	0.541	0.518	0.823	0.896	0.918	0.621	0.966	-0.0542	-0.0206	-0.0788	0.122	-0.0366	-0.0501	-0.0399	0.0503	0.0218	-0.0479
O=C(c1cc(Cc2n[nH]c(=O)c3ccccc23)ccc1F)N1CCN(C(=O)C2CC2)CC1 [Olaparib] + CC1(C)CCC(CN2CCN(c3ccc(C(=O)NS(=O)(=O)c4ccc(NCC5CCOCC5)c([N+](=O)[O-])c4)c(Oc4cnc5[nH]ccc5c4)c3)CC2)=C(c2ccc(Cl)cc2)C1 [Venetoclax] (first compound max 10 µM, 7x7, partner max 1 µM)	0.118	0.117	0.156	0.0337	0.097	0.479	0.186	0.284	0.614	0.465	-0.0025	-0.0425	-0.0388	-0.0151	-0.0206	-0.0572	0.0921	-0.0258	0.0052	-0.0472
O=C(c1cc(Cc2n[nH]c(=O)c3ccccc23)ccc1F)N1CCN(C(=O)C2CC2)CC1 [Olaparib] + CN(CC[C@H](CSC1=CC=CC=C1)NC2=C(C=C(C=C2)S(=O)(=O)NC(=O)C3=CC=C(C=C3)N4CCC(CC4)[C@H](C5=CC=CC=C5C6=CC=C(C=C6)Cl)O)S(=O)(=O)C(F)(F)F)CCO [AZD4320] (first compound max 10 µM, 7x7, partner max 1 µM)	0.168	0.29	0.199	0.0936	0.118	0.602	0.2	0.451	0.954	0.882	-0.0184	-0.0405	-0.0148	-0.0252	-0.0379	-0.0301	-0.0141	-0.0291	0.0027	-0.0672
O=C(c1cc(Cc2n[nH]c(=O)c3ccccc23)ccc1F)N1CCN(C(=O)C2CC2)CC1 [Olaparib] + COc1nnc2ccc(N3CCC(c4ccc(OCCN5CCN(C)C(=O)[C@H]5C)cc4)CC3)nn12 [AZD5153] (first compound max 10 µM, 7x7, partner max 1 µM)	0.422	0.454	0.611	0.417	0.332	0.792	0.612	0.651	0.488	0.574	-0.0427	-0.0144	-0.0392	-0.0893	-0.0775	-0.0512	-0.0334	-0.0668	-0.004	-0.0296
O=C(c1cc(Cc2n[nH]c(=O)c3ccccc23)ccc1F)N1CCN(C(=O)C2CC2)CC1 [Olaparib] + Cc1c2c(nn1C)CSCc1cc(n(C)n1)CSc1cc(c3ccccc3c1)OCCCc1c(C(=O)O)n(C)c3c-2c(Cl)ccc13 [AZD5991] (first compound max 10 µM, 7x7, partner max 1 µM)	0.118	0.239	0.0887	0.161	0.0456	0.477	0.184	0.748	0.239	0.595	-0.016	-0.048	-0.0563	-0.0205	-0.0358	-0.0286	-0.0194	-0.0523	-0.0183	-0.06
N#Cc1cnc(Nc2cc(NC[C@H]3CNCCO3)c(C(F)(F)F)cn2)cn1 [SRA737] + C=CCn1c(=O)c2cnc(Nc3ccc(N4CCN(C)CC4)cc3)nc2n1-c1cccc(C(C)(C)O)n1 [AZD1775] (first compound max 10 µM, partner max 1 µM)	0.617	0.924	0.395	0.638	0.405	0.766	0.79	0.707	0.756	0.997	0.0422	0.116	-0.0051	0.0536	0.0442	-0.0003	-0.0363	-0.0045	0.0644	-0.0357
N#Cc1cnc(Nc2cc(NC[C@H]3CNCCO3)c(C(F)(F)F)cn2)cn1 [SRA737] + CCc1c2c(nc3ccc(O)cc13)-c1cc3c(c(=O)n1C2)COC(=O)[C@]3(O)CC [SN-38] (first compound max 10 µM, 7x7, partner max 0.3 µM)	0.516	0.924	0.512	0.679	0.616	0.796	0.831	0.769	0.82	0.981	-0.0706	-0.0079	-0.043	-0.0398	-0.0628	-0.0989	-0.0382	-0.0752	-0.0148	-0.0464
N#Cc1cnc(Nc2cc(NC[C@H]3CNCCO3)c(C(F)(F)F)cn2)cn1 [SRA737] + Nc1ccn([C@@H]2O[C@H](CO)[C@@H](O)C2(F)F)c(=O)n1 [Gemcitabine] (first compound max 10 µM, 7x7, partner max 0.3 µM)	0.761	0.826	0.689	0.788	0.649	0.806	0.916	0.804	0.778	1	-0.0331	-0.0288	0.0428	-0.0179	-0.0013	-0.0658	0.0526	0.0198	0.0218	0.0128
N#Cc1cnc(Nc2cc(NC[C@H]3CNCCO3)c(C(F)(F)F)cn2)cn1 [SRA737] + O=c1[nH]cc(F)c(=O)[nH]1 [5-Fluorouracil] (first compound max 10 µM, 7x7, partner max 20 µM)	0.28	0.667	0.451	0.38	0.193	0.662	0.413	0.759	0.152	0.97	-0.0338	0.0058	-0.0459	0.0048	-0.0379	0.0112	0.0758	-0.0472	0.0321	-0.0597
CC1(C)CCC(CN2CCN(c3ccc(C(=O)NS(=O)(=O)c4ccc(NCC5CCOCC5)c([N+](=O)[O-])c4)c(Oc4cnc5[nH]ccc5c4)c3)CC2)=C(c2ccc(Cl)cc2)C1 [Venetoclax] + CS(=O)(=O)CCNCc1ccc(-c2ccc3ncnc(Nc4ccc(OCc5cccc(F)c5)c(Cl)c4)c3c2)o1 [Lapatinib] (first compound max 1 µM, 7x7, partner max 10 µM)	0.362	0.673	0.187	0.176	0.288	0.484	0.213	0.341	0.724	0.948	-0.0492	-0.0457	-0.0404	-0.0366	-0.02	-0.0249	0.0315	-0.0239	0.0606	-0.0032
